Data published in patent US20220151979A1, “COMPOSITION FOR PREVENTION OR TREATMENT OF CARDIOVASCULAR AND METABOLIC DISEASE COMPRISING NORANHYDROICARITIN” (SEOUL NATIONAL UNIVERSITY HOSPITAL, priority 2019, published 2022).

Key:
[1] = test system: PCSK9 mRNA; assay: PCSK9 mRNA by RealTime-PCR in HepG2 cells; assay type: cell-based, human; settings: 24 hours
Excerpt: Proprotein convertase subtilisin/kexin type 9 (PCSK9) is an enzyme involved in lipid metabolism and is attached to low-density lipoprotein receptor (LDLR) bound to low-density lipoprotein (LDL) in the liver or other cell membranes to degrade LDLR so that LDLR cannot be regenerated into the cell membrane and cannot absorb extracellular LDL. Therefore, inhibition of PCSK9 production increases LDLR, decreases extracellular LDL, and lowers cholesterol levels, and thus lipid metabolism-related diseases may be alleviated. Therefore, in order to confirm the PCSK9 production inhibitory effect of noranhydroicaritin, HepG2 cells were treated with noranhydroicaritin at various concentrations, and then the relative quantity of PCSK9 mRAN was confirmed through RealTime-PCR.
Specifically, HepG2 cells were suspended at a concentration of 2.5×10^5 cells/mL, and 1 mL thereof was inoculated into each well of a […], and then maintained for one day. The HepG2 cells in the well plate were treated with kaempferol and noranhydroicaritin at concentrations of 2.5 μM, 5 μM, 10 μM, and 20 μM, and incubated for 24 hours, and then RNA was recovered, quantified, and stored at −70° C. Thereafter, cDNA was synthesized from the RNA and the quantity of PCSK9 mRNA was confirmed through RealTime-PCR analysis. The group treated only with DMSO was used as a negative control. […]

[2] = test system: PPARα; assay: PPARα expression in HepG2 cells (RealTime-PCR, immunohistochemistry); assay type: cell-based, human
Method: In order to confirm the effect of increasing the expression of PPARα and PPARγ of noranhydroicaritin, PCR using PPARα primers and immunohistochemistry targeting PPARα and PPARγ were performed to confirm the expression levels.
Using cDNA synthesized with RNA according to the method of Example 4, the quantities of PPARα mRNA and PPARγ mRNA were confirmed through RealTime-PCR analysis. The group treated only with DMSO was used as a negative control. For immunohistochemistry, HepG2 cells were attached to a slide chamber, then treated with noranhydroicaritin at 20 μM, and incubated. After fixation with formalin, the HepG2 cells were stained with antibodies targeting PPARα and PPARγ, and treated with DAPI to stain nuclei, and the degree of fluorescent expression was confirmed using a confocal microscope.

[3] = test system: atherosclerotic plaque; assay: Gross plaque imaging in PCSK9-injected mouse carotid-ligation arteriosclerosis model; assay type: in vivo; settings: AAV-PCSK9 virus, high-fat diet, 10 μg/g/day, 3 weeks after ligation, vehicle group about 45%
Method: By ligation to the carotid artery of 6- to 8-week-old mice, mechanical stress was applied to induce inflammation, thrombosis, oxidative stress, and shear stress, and the function and structure of the external carotid (EC) were changed to prepare an atherosclerosis model (FIG. 13). Specifically, ligation was performed on the left common carotid artery (LCA) after abdominal anesthesia by performing carotid artery ligation on mice fed a high-fat diet for one week. Partial ligation of three branches in the LCA, the external carotid artery (ECA), the internal carotid artery (ICA), and the occipital artery (OA) was performed. At this time, ICA and OA were ligated, and ECA was ligated separately. In mice subjected to ligation, the amount of blood flow to the heart decreased and the direction of blood flow changed, whereby an atherosclerosis model was prepared. Carotid artery ligation was performed one week after injection of AAV-PCSK9 Virus (1×10^11 IFU/mL) and noranhydroicaritin (10 μg/g/day). After 3 weeks of ligation, it was confirmed whether the atherosclerosis model was completed, and gross plaque imaging and immunofluorescence were performed to confirm the arteriosclerosis inhibitory effect of noranhydroicaritin.

[4] = test system: PCSK9; assay: Immunoblot of PCSK9 in HepG2 cells; assay type: cell-based, human; settings: HepG2 cells, 5, 10, 20 μM
Method: In order to confirm the effect of noranhydroicaritin to inhibit PCSK9 expression and increase LDLR expression, immunoblotting targeting PCSK9 and LDLR was performed and the expression levels were compared. β-Actin was used as a control.
In a 100 mm Petri dish, 1×10^6 HepG2 cells were aliquoted and treated with noranhydroicaritin at various concentrations (5 μM, 10 μM, and 20 μM), and then the cells were removed from the cell-culture dish and homogenized using a protein extraction solution (NP40, ELPIS BIOTECH, Korea) containing a protease inhibitor cocktail (Roche).
In order to prepare the total protein, the cells were extracted in RIPA lysis buffer (50 mM Tris-HCl (pH 7.4), 150 mM NaCl, 5 mM EDTA, 5 mM EGTA, 5 mM sodium fluoride, 2 mM sodium orthovanadate, 1% NP-40, 0.1% sodium dodecyl sulfate [SDS], 1 mM phenylmethylsulfonyl fluoride [PMSF], and protein inhibitor cocktail [Roche Diagnostics, Heidelberg, Germany]). The protein concentration in the lysate was measured using the Bio-Rad dye-binding micro assay. For immunoblotting, 30 μg of cell lysate was isolated via SDS-polyacrylamide gel electrophoresis (PAGE). The proteins were transferred onto the Hybond-ECL nitrocellulose membrane (Amersham Biosciences, Buckinghamshire, UK). […] HRP-conjugated secondary antibodies were detected using an ECL detection reagent.

[5] = test system: IL-1B; assay: Immunofluorescence of IL-1B in carotid artery, mouse arteriosclerosis model; assay type: in vivo; settings: 10 μg/g/day
Method: Carotid artery ligation was performed one week after injection of AAV-PCSK9 Virus (1×10^11 IFU/mL) and noranhydroicaritin (10 μg/g/day). After 3 weeks of ligation, it was confirmed whether the atherosclerosis model was completed, and gross plaque imaging and immunofluorescence were performed to confirm the arteriosclerosis inhibitory effect of noranhydroicaritin.
Furthermore, the arteriosclerosis inhibitory effect of noranhydroicaritin was confirmed using immunofluorescence. Specifically, a mouse carotid artery was obtained and fixed in 4% PFA for one day, and then prepared into a block. As the inflammatory response in blood vessels progresses, the arteriosclerosis worsens, and thus the marker […] of macrophages causing arteriosclerotic inflammatory response and TNF-α, IL-1B, and MCP-1, which are pro-inflammatory cytokines secreted when the inflammatory response occurs, were stained. Staining was performed using the antibody for each of CAP1(1:200), PCSK9(1:100), F4/80(1:100), TNF-α(1:100), […], and MCP-1(1:100), then imaging was performed using a confocal microscope, and […] was evaluated.

SMILES: CC(C)=CCc1c(O)cc(O)c2c(=O)c(O)c(-c3ccc(O)cc3)oc12 [Noranhydroicaritin, noranhydroicaritin]
- PCSK9 production inhibitory effect (quantity of PCSK9 mRNA) ([1]; 2.5 μM and 5 μM): remarkably superior to that of the control
- PCSK9 production inhibitory effect (quantity of PCSK9 mRNA) ([1]; same concentration as control): superior to that of atorvastatin or rosuvastatin
- expression of PPARα [2]: increased in a concentration-dependent manner
- atherosclerotic plaque-formed area [3]: about 20%
- PCSK9 expression (immunoblot) [4]: decreased in a concentration-dependent manner
- expression of IL-1B (immunofluorescence) [5]: decreased
